In patent US20030007949A1, “Adhesive treatment for tinea corporis” (CLOSURE MEDICAL CORPORATION, priority 2001, published 2003):

Assay: Observation of haloprogin / 2-octyl cyanoacrylate monomer composition after preparation
Type: physicochemical
Details: 30 mg haloprogin in 2 mL 2-octyl cyanoacrylate monomer, observed at about one minute and at least twenty-four hours after preparation
Protocol: A 2-octyl cyanoacrylate monomer composition is prepared by adding 30 mg of haloprogin, an anti-fungal agent, to 2 mL of 2-octyl cyanoacrylate monomer. The mixture is sealed in a glass vial and stirred. The characteristics of the composition are observed at about one minute after preparation and later at least twenty-four hours after preparation.

Structure (SMILES): Clc1cc(Cl)c(OCC#CI)cc1Cl [haloprogin]
- premature polymerization caused in the monomer: does not cause premature polymerization
- solubility of haloprogin in the monomer (sealed glass vial, stirred): soluble
